The values below come from patent US9840513B2 (AbbVie S.à.r.l., priority 2015, dated 2017).

Molecules are shown by their SMILES.

Assay [1] addresses T1, F508delCFTR cell surface expression in CFBE41o-F508delCFTR-HRP cells (Homo sapiens, UniProt P13569, DEL508-508).
T1 construct: fused on or other part: Horseradish peroxidase (HRP) reporter inserted in the fourth exofacial (extracellular) loop of CFTR; expression is doxycycline-inducible
Kind of assay: Cell Surface Expression-Horse Radish Peroxidase (CSE-HRP) Assay. It is filed as cell-based. Particulars: for EC50: CFBE41o-F508delCFTR-HRP cells, 18-24 hours at 33° C., 8-point curve, highest concentration 20 μM; for Maximum % activity (%): maximum at any tested concentration, normalized to on-plate positive control (3 μM). An outline of the steps: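 CFBE41o- cells with HRP-tagged F508delCFTR, expression induced by 0.5 μg/mL doxycycline for 72 h at 37 °C, then compound for 18-24 h at 33 °C (8-point, 3-fold, top 20 μM). Surface HRP measured by luminol luminescence; % activity normalised to 3 μM positive-control corrector; EC50 from variable-slope sigmoidal fit, three replicate plates.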

The target of assay [2] is T2, F508delCFTR in primary hBE cells with F508del/F508del CFTR mutation (Homo sapiens, UniProt P13569, DEL508-508).
T2 construct: cells isolated from CF patients with the homozygous mutation; endogenous in cells; host or cells: primary human bronchial epithelial (hBE) cells from F508del/F508del CF patients
T2 sequence (P13569 with tags, fused parts or gaps DEL508-508): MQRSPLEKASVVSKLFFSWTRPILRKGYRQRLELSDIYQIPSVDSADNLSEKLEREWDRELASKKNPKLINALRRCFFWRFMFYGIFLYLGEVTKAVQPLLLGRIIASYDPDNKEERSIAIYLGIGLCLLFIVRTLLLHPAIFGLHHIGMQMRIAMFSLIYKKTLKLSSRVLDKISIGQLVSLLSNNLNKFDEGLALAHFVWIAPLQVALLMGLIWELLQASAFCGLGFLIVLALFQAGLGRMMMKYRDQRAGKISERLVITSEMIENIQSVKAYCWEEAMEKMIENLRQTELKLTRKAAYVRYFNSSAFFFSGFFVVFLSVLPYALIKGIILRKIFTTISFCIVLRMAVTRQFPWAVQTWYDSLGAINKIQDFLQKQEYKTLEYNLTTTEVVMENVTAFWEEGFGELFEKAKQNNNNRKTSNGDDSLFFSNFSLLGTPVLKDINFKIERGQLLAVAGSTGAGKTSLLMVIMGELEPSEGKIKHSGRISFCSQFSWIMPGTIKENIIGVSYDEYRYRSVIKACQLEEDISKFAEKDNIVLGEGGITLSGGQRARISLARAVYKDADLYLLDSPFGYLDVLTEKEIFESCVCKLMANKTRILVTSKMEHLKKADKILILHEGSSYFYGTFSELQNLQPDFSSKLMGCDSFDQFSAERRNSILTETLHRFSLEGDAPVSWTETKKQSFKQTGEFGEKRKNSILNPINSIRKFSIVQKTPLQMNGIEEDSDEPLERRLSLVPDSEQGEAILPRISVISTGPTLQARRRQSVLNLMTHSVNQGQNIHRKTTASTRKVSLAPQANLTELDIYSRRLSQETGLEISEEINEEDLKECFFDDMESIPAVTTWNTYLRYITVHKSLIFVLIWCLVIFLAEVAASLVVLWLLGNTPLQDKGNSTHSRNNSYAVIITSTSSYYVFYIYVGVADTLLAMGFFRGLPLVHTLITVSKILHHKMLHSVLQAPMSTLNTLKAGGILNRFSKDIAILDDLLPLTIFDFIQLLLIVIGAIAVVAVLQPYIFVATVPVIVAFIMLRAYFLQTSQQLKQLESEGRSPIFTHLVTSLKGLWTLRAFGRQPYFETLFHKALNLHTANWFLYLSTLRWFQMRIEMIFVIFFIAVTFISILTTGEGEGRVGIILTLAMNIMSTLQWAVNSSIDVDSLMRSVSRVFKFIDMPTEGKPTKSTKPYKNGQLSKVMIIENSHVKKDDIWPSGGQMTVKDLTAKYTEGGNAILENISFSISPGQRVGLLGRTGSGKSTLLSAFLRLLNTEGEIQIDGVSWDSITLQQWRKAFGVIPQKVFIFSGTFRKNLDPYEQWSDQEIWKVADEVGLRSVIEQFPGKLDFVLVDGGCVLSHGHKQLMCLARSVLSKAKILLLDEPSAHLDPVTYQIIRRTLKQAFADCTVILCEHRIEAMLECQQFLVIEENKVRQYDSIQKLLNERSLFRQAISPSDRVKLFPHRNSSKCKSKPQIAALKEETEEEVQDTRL
Kind of assay: Transepithelial Clamp Circuit on Human Bronchial Epithelial Cells Conductance Assay (hBE-TECC). Particulars: for EC50: primary hBE cells F508del/F508del, 18-24 hours at 37° C., equivalent short circuit current, 6 concentrations; for Maximum % activity (%): relative to positive control (3 μM) coupled with control potentiator. It counts as cell-based. A digest of the protocol: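 Primary F508del/F508del hBE cells grown 35 days at air-liquid interface, treated basolaterally with correctors 18-24 h at 37° C. Ieq (Vt/Rt) at 36.5° C, pH 7.4, after benzamil, forskolin 10 μM, control potentiator, bumetanide; 6 concentrations normalized to DMSO and 3 μM positive-control corrector, EC50 by 4-parameter fit.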

T1 sequence (P13569 with tags, fused parts or gaps DEL508-508 limits assumed): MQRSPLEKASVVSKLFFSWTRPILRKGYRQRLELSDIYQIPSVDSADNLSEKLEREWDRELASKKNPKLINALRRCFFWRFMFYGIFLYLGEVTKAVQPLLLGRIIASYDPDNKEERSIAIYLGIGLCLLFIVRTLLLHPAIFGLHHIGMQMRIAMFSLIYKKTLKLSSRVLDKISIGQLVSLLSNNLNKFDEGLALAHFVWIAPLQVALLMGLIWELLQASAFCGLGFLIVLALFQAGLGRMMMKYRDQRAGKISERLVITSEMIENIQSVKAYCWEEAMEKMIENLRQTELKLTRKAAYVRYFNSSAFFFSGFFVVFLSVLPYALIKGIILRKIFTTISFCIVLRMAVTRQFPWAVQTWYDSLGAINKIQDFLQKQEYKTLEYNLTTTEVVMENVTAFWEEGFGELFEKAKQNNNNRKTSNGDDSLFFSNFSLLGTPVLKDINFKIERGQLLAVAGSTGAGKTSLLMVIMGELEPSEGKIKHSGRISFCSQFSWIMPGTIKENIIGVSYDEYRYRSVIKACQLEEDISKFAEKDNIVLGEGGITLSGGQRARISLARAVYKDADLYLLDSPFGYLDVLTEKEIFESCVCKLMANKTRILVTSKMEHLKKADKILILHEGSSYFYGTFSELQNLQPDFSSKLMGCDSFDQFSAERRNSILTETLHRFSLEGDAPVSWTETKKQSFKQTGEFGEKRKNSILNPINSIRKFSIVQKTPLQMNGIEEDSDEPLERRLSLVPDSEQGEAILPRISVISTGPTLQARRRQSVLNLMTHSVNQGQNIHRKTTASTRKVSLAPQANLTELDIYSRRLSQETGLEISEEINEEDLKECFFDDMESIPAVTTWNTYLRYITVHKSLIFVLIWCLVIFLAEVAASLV
T1 sequence (P13569 919-1480 limits assumed, stated change not applied): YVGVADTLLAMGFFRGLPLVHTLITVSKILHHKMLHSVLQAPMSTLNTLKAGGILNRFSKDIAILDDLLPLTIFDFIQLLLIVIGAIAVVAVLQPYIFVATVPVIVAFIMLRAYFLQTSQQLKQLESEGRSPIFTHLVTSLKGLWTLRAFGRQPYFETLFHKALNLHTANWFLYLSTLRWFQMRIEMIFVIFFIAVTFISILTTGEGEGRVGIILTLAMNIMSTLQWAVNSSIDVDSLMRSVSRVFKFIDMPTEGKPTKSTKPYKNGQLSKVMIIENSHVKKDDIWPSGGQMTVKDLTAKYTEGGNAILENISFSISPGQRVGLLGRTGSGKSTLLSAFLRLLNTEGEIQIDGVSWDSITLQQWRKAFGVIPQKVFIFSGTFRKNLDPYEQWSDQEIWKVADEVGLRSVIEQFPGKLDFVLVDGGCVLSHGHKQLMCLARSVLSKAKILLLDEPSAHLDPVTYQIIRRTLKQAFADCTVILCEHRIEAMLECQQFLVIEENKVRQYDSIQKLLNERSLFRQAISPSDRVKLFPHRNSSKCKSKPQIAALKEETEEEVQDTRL

Usually EC50 stands for the concentration giving half of the maximal effect. Consider `COc1ccc2c(c1)O[C@@H](c1ccc(CO)cn1)C[C@H]2NC(=O)[C@@]1(C)COc2cc3c(cc21)OC(F)(F)O3` [Example 174, (7R)-2,2-difluoro-N-{(2R,4R)-2-[5-(hydroxymethyl)pyridin-2-yl]-7-methoxy-3,4-dihydro-2H-1-benzopyran-4-yl}-7-methyl-6,7-dihydro-2H-furo[2,3-f][1,3]benzodioxole-7-carboxamide], for which, in assay [1], the EC50 worked out at 120 nM and the “Maximum % activity (%)” value is 118%. For the same molecule, in assay [2], the 50% effective concentration (EC50) came out at 15 nM and the “Maximum % activity (%)” value amounted to 94%.

As for `COc1ccc2c(c1)O[C@@H](c1cnc(C(O)CO)cn1)C[C@H]2NC(=O)[C@@]1(C)COc2cc3c(cc21)OC(F)(F)O3` (stereo partly drawn) [Example 175, (7R)—N-{(2R,4R)-2-[5-(1,2-dihydroxyethyl)pyrazin-2-yl]-7-methoxy-3,4-dihydro-2H-1-benzopyran-4-yl}-2,2-difluoro-7-methyl-6,7-dihydro-2H-furo[2,3-f][1,3]benzodioxole-7-carboxamide], in assay [1], the midpoint of the response, the EC50, lay at 220 nM and the “Maximum % activity (%)” value came to 139%. Further, in assay [2], the EC50 came to 43 nM and the “Maximum % activity (%)” value was 107%.

With `C[C@]1(C(=O)N[C@@H]2C[C@H](c3ccc(CO)cn3)Oc3cc(OC(F)(F)F)ccc32)COc2cc3c(cc21)OC(F)(F)O3` [Example 177, (7R)-2,2-difluoro-N-[(2R,4R)-2-[5-(hydroxymethyl)pyridin-2-yl]-7-(trifluoromethoxy)-3,4-dihydro-2H-1-benzopyran-4-yl]-7-methyl-6,7-dihydro-2H-furo[2,3-f][1,3]benzodioxole-7-carboxamide], the EC50 in assay [1] was 90 nM; in assay [2], 13 nM. The “Maximum % activity (%)” value in assay [1] came out at 127%; in assay [2], 99%.

As for `COc1ccc2c(c1)O[C@@H](c1ccc(CO)nc1)C[C@H]2NC(=O)[C@@]1(C)COc2cc3c(cc21)OC(F)(F)O3` [Example 178, (7R)-2,2-difluoro-N-{(2R,4R)-2-[6-(hydroxymethyl)pyridin-3-yl]-7-methoxy-3,4-dihydro-2H-1-benzopyran-4-yl}-7-methyl-6,7-dihydro-2H-furo[2,3-f][1,3]benzodioxole-7-carboxamide], the EC50 was found to be 290 nM in assay [1] and 66 nM in assay [2]. In addition, the entries for the “Maximum % activity (%)” value in assay [1] and in assay [2] were 158% and 108%, respectively.

Regarding `CC(C)(CO)c1cc2cc(NC(=O)[C@@]3(C)COc4cc5c(cc43)OC(F)(F)O5)c(F)cc2n1C[C@@H](O)CC#N` [Example 179, (7R)—N-{1-[(2S)-3-cyano-2-hydroxypropyl]-6-fluoro-2-(1-hydroxy-2-methylpropan-2-yl)-1H-indol-5-yl}-2,2-difluoro-7-methyl-6,7-dihydro-2H-furo[2,3-f][1,3]benzodioxole-7-carboxamide], in assay [1], the EC50 stood at 280 nM and the “Maximum % activity (%)” value stood at 108%. Besides, in assay [2], the EC50 was determined as 147 nM and the “Maximum % activity (%)” value is on record as 70%.

Turning to `COc1ccc2c(c1)O[C@@H](c1ccc(=O)[nH]n1)C[C@H]2NC(=O)[C@@]1(C)COc2cc3c(cc21)OC(F)(F)O3` [Example 197, (7R)-2,2-difluoro-N-[(2R,4R)-7-methoxy-2-(6-oxo-1,6-dihydropyridazin-3-yl)-3,4-dihydro-2H-1-benzopyran-4-yl]-7-methyl-6,7-dihydro-2H-furo[2,3-f][1,3]benzodioxole-7-carboxamide], in assay [1], the EC50 is 40 nM and the “Maximum % activity (%)” value is given as 130%. Besides, in assay [2], the EC50 was determined as 6 nM and the “Maximum % activity (%)” value came out at 105%.

On to `CC1(C)COC(C)(C)c2c1n(C[C@@H](O)CO)c1cc(F)c(NC(=O)[C@@]3(C)COc4cc5c(cc43)OC(F)(F)O5)cc21` [Example 206, (7R)—N-{5-[(2R)-2,3-dihydroxypropyl]-7-fluoro-1,1,4,4-tetramethyl-1,3,4,5-tetrahydropyrano[4,3-b]indol-8-yl}-2,2-difluoro-7-methyl-6,7-dihydro-2H-furo[2,3-f][1,3]benzodioxole-7-carboxamide], for which, in assay [1], the midpoint of the response, the EC50, lay at 1950 nM and the “Maximum % activity (%)” value is 84%. For the same molecule, in assay [2], the EC50 was found to be 1030 nM and the “Maximum % activity (%)” value was 79%.

For the molecule `COc1ccc2c(c1)O[C@@H](c1ccc(C(=O)N3CCN(CCO)CC3)cn1)C[C@H]2NC(=O)[C@@]1(C)COc2cc3c(cc21)OC(F)(F)O3` [Example 213, (7R)-2,2-difluoro-N-[(2R,4R)-2-{5-[4-(2-hydroxyethyl)piperazine-1-carbonyl]pyridin-2-yl}-7-methoxy-3,4-dihydro-2H-1-benzopyran-4-yl]-7-methyl-6,7-dihydro-2H-furo[2,3-f][1,3]benzodioxole-7-carboxamide], the EC50 in assay [1] came out at 80 nM; in assay [2], 41 nM. Further, the “Maximum % activity (%)” value in assay [1] came to 117%; in assay [2], 82%.

As to `COc1ccc2c(c1)O[C@@H](c1ccc(C(=O)NCC(C)(C)O)cn1)C[C@H]2NC(=O)[C@@]1(C)COc2cc3c(cc21)OC(F)(F)O3` [Example 214, 6-[(2R,4R)-4-{[(7R)-2,2-difluoro-7-methyl-6,7-dihydro-2H-furo[2,3-f][1,3]benzodioxole-7-carbonyl]amino}-7-methoxy-3,4-dihydro-2H-1-benzopyran-2-yl]-N-(2-hydroxy-2-methylpropyl)pyridine-3-carboxamide], in assay [1], the EC50 is 60 nM and the “Maximum % activity (%)” value was found to be 114%. In addition, in assay [2], the EC50 turned out to be 16 nM and the “Maximum % activity (%)” value amounted to 88%.

In the case of `COc1ccc2c(c1)O[C@@H](c1ccc(C(=O)N3CCOCC3)cn1)C[C@H]2NC(=O)[C@@]1(C)COc2cc3c(cc21)OC(F)(F)O3` [Example 220, (7R)-2,2-difluoro-N-{(2R,4R)-7-methoxy-2-[5-(morpholine-4-carbonyl)pyridin-2-yl]-3,4-dihydro-2H-1-benzopyran-4-yl}-7-methyl-6,7-dihydro-2H-furo[2,3-f][1,3]benzodioxole-7-carboxamide], in assay [1], the EC50 was 10 nM and the “Maximum % activity (%)” value stood at 112%. Also, in assay [2], the EC50 was found to be 10 nM and the “Maximum % activity (%)” value is given as 94%.

In the case of `COc1ccc2c(c1)O[C@@H](c1ccc(C(=O)NCC(O)CO)cn1)C[C@H]2NC(=O)[C@@]1(C)COc2cc3c(cc21)OC(F)(F)O3` (stereo partly drawn) [Example 243, 6-[(2R,4R)-4-{[(7R)-2,2-difluoro-7-methyl-6,7-dihydro-2H-furo[2,3-f][1,3]benzodioxole-7-carbonyl]amino}-7-methoxy-3,4-dihydro-2H-1-benzopyran-2-yl]-N-(2,3-dihydroxypropyl)pyridine-3-carboxamide], in assay [1], it took 70 nM to reach a half-maximal effect (EC50) and the “Maximum % activity (%)” value is given as 112%. Also, in assay [2], the EC50 is 21 nM and the “Maximum % activity (%)” value was determined as 87%.

With `COc1ccc2c(c1)O[C@@H](c1ccc(C(=O)N3C[C@@H](O)[C@H](O)C3)cn1)C[C@H]2NC(=O)[C@@]1(C)COc2cc3c(cc21)OC(F)(F)O3` [Example 248, (7R)—N-[(2R,4R)-2-{5-[(3R,4R)-3,4-dihydroxypyrrolidine-1-carbonyl]pyridin-2-yl}-7-methoxy-3,4-dihydro-2H-1-benzopyran-4-yl]-2,2-difluoro-7-methyl-6,7-dihydro-2H-furo[2,3-f][1,3]benzodioxole-7-carboxamide], in assay [1], the EC50 amounted to 90 nM and the “Maximum % activity (%)” value stood at 116%. In addition, in assay [2], the EC50 came out at 32 nM and the “Maximum % activity (%)” value is on record as 105%.

As for `COc1ccc2c(c1)O[C@@H](c1cnc(N3C[C@@H](O)[C@H](O)C3)cn1)C[C@H]2NC(=O)[C@@]1(C)COc2cc3c(cc21)OC(F)(F)O3` [Example 250, (7R)—N-[(2R,4R)-2-{5-[(3R,4R)-3,4-dihydroxypyrrolidin-1-yl]pyrazin-2-yl}-7-methoxy-3,4-dihydro-2H-1-benzopyran-4-yl]-2,2-difluoro-7-methyl-6,7-dihydro-2H-furo[2,3-f][1,3]benzodioxole-7-carboxamide], in assay [1], the 50% effective concentration (EC50) was 20 nM and the “Maximum % activity (%)” value is listed as 135%. In assay [2], the EC50 was 1 nM and the “Maximum % activity (%)” value was determined as 95%.

With `COc1ccc2c(c1)O[C@@H](c1ccc(N3C[C@@H](O)[C@H](O)C3)nn1)C[C@H]2NC(=O)[C@@]1(C)COc2cc3c(cc21)OC(F)(F)O3` [Example 251, (7R)—N-[(2R,4R)-2-{6-[(3R,4R)-3,4-dihydroxypyrrolidin-1-yl]pyridazin-3-yl}-7-methoxy-3,4-dihydro-2H-1-benzopyran-4-yl]-2,2-difluoro-7-methyl-6,7-dihydro-2H-furo[2,3-f][1,3]benzodioxole-7-carboxamide], in assay [1], the EC50 was found to be 30 nM and the “Maximum % activity (%)” value was determined as 128%. Besides, in assay [2], the EC50 came out at 5 nM and the “Maximum % activity (%)” value is on record as 86%.
